Data from patent US20080004274A1, “Novel biaromatic compounds that modulate PPAR type receptors and cosmetic/pharmaceutical compositions comprised thereof” (GALDERMA RESEARCH & DEVELOPMENT, priority 2004, published 2008).

Assays:
Assay type in all cases: cell-based
[1] = molecular target: T1, PPARγ (Homo sapiens, UniProt P37231); assay: Cross-curve PPAR transactivation test, PPARγ; conditions: HeLN cells, stable transfectants ERE-βGlob-Luc-SV-Neo and Gal-hPPARγ; luciferase; cross curves against reference agonist, Schild regression; n.a. means not active; read-out: PPAR gamma Kd app
T1 construct: the reporter is ERE-βGlob-Luc
T1 sequence (P37231 238-505 limits assumed): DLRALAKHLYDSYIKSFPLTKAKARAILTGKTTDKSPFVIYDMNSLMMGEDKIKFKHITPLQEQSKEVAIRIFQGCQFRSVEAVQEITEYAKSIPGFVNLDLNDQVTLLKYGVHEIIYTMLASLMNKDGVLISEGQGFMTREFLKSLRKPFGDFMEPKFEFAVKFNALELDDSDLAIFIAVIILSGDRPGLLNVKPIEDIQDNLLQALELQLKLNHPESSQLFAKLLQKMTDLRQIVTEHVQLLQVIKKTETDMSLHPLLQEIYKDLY
Method: (§1) The activation of the receptors with an agonist (activator) in HeLN cells leads to the expression of a reporter gene, luciferase, which, in the presence of a substrate, generates light. The modulation of the receptors is measured by quantifying the luminescence produced after incubating the cells in the presence of a reference agonist. The ligands displace the agonist from its site. The measurement of the activity is performed by quantifying the light produced. This measurement makes it possible to determine the modulatory activity of the compounds according to the invention by determining the constant that is the affinity of the molecule for the receptor. Since this value can fluctuate depending on the basal activity and the expression of the receptor, it is referred to as Kd apparent (KdApp in nM).
(§2) To determine this constant, “cross curves” of the test product against a reference agonist are produced in a 96-well plate: 10 concentrations of the test product plus a concentration 0 are arranged in a line, and 7 concentrations of the agonist plus a concentration 0 are arranged in a column. This is 88 measurement points for 1 product and 1 receptor. The remaining 8 wells are used for repeatability controls.
(§3) Measurements are also taken for total agonist controls with the same products.
(§4) The HeLN cell lines used are stable transfectants containing the plasmids ERE-βGlob-Luc-SV-Neo (reporter gene) and PPAR (α, δ, γ) Gal-hPPAR. These cells are inoculated into 96-well plates at a rate of 10 000 cells per well in 100 μl of DMEM medium without phenol red and supplemented with 10% of defatted calf serum. The plates are then incubated at 37° C. and 7% CO2 for 16 hours.
(§5) The various dilutions of the test products and of the reference ligand are added at a rate of 5 μl per well. The plates are then incubated for 18 hours at 37° C. and 7% CO2. The culture medium is removed by turning over and 100 μl of a 1:1 PBS/luciferin mixture are added to each well. After 5 minutes, the plates are read by the luminescence detector.

[2] = molecular target: T2, PPARα (Homo sapiens, UniProt Q07869); assay: Cross-curve PPAR transactivation test, PPARα; conditions: HeLN cells, stable transfectants ERE-βGlob-Luc-SV-Neo and Gal-hPPARα; luciferase; cross curves against reference agonist, Schild regression; n.a. means not active; read-out: PPAR alpha Kd app
T2 construct: the reporter is ERE-βGlob-Luc
T2 sequence (Q07869 200-468 limits assumed): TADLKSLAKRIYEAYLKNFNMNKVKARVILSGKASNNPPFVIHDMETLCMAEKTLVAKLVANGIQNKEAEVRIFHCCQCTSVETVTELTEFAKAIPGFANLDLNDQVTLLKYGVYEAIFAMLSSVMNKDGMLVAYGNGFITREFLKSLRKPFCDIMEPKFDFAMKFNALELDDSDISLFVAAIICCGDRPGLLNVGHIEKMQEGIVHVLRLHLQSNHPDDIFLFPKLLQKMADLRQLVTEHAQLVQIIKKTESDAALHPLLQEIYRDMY
Method: as §1, §2, §3, §4, §5

[3] = molecular target: T3, PPARδ (Homo sapiens, UniProt Q03181); assay: Cross-curve PPAR transactivation test, PPARδ; conditions: HeLN cells, stable transfectants ERE-βGlob-Luc-SV-Neo and Gal-hPPARδ; luciferase; cross curves against reference agonist, Schild regression; n.a. means not active; read-out: PPARs delta Kd app
T3 construct: the reporter is ERE-βGlob-Luc
T3 sequence (Q03181 171-441 limits assumed): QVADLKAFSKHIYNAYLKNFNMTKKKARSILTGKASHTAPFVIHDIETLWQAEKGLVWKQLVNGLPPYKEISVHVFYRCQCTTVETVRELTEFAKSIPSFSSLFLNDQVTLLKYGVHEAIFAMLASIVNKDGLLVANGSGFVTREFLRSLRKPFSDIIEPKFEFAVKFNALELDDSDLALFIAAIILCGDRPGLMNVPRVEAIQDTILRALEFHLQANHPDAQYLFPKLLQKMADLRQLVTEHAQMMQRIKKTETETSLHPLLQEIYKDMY
Method: as §1, §2, §3, §4, §5

Structure (SMILES)	Kd [1]	Kd [2]	Kd [3]
CCCCCCCN1C(=O)/C(=N\NC(=O)Nc2ccccc2Cl)c2cc(SCCc3ccc(C(=O)O)cc3)ccc21 [Example 84, 4-{2-[3-((2-chloroanilino)carbonylhydrazono)-2-oxo-1-heptyl-2,3-dihydro-1H-indol-5-ylsulfanyl]ethyl}benzoic acid]	1 µM	0.5 µM	0.03 µM
CCCCCCCN1C(=O)/C(=N\NC(=O)Nc2cccc(C(F)(F)F)c2)c2cc(SCCc3ccc(C(=O)O)cc3)ccc21 [Example 20, 4-{2-[3-((3-trifluoromethylanilinocarbonyl)hydrazono)-2-oxo-1-heptyl-2,3-dihydro-1H-indol-5-ylsulfanyl]ethyl}benzoic acid]	1 µM	2 µM	0.5 µM
CCCCN1C(=O)/C(=N/NC(=O)Nc2ccccc2)c2cc(SCCc3ccc(C(=O)O)cc3)ccc21 [Example 14, 4-{2-[3-((anilinocarbonyl)hydrazono)-2-oxo-1-butyl-2,3-dihydro-1H-indol-5-ylsulfanyl]ethyl}benzoic acid]	1 µM	2 µM	0.12 µM
COC(=O)c1ccc(CCSc2ccc3c(c2)/C(=N\NC(=O)Nc2cccc(F)c2)C(=O)N3CCc2ccccc2)cc1 [Example 17, methyl 4-{2-[3-((3-fluoroanilinocarbonyl)hydrazono)-2-oxo-1-phenethyl-2,3-dihydro-1H-indol-5-ylsulfanyl]ethyl}benzoate]	1 µM	0.25 µM	–
O=C(N/N=C1\C(=O)N(CCc2ccccc2)c2ccc(SCCc3ccc(C(=O)O)cc3)cc21)Nc1ccccc1 [Example 16, 4-{2-[3-((anilinocarbonyl)hydrazono)-2-oxo-1-phenethyl-2,3-dihydro-1H-indol-5-ylsulfanyl]ethyl}benzoic acid]	0.5 µM	2 µM	4 µM
CCCCCCCN1C(=O)C(=NNC(=O)Nc2ccccc2Cl)c2cc(SCCc3ccc(C(=O)O)cc3)ccc21 [Example 22, 4-{2-[3((2-chloroanilinocarbonyl)hydrazono)-2-oxo-1-heptyl-2,3-dihydro-1H-indol-5-ylsulfanyl]ethyl}benzoic acid]	1 µM	2 µM	0.06 µM
CCCCN1C(=O)/C(=N\NC(=O)Nc2cccc(F)c2)c2cc(SCCc3ccc(C(=O)O)cc3)ccc21 [Example 18, 4-{2-[3-((3-fluoroanilinocarbonyl)hydrazono)-2-oxo-1-butyl-2,3-dihydro-1H-indol-5-ylsulfanyl]ethyl}benzoic acid]	0.5 µM	2 µM	0.25 µM
CCCCCCN1C(=O)/C(=N/NC(=O)Nc2ccccc2)c2cc(SCCCc3ccc(C(=O)O)cc3)ccc21 [Example 62, 4-[3-(3-((anilinocarbonyl)hydrazono)-2-oxo-1-hexyl-2,3-dihydro-1H-indol-5-ylsulfanyl)propyl]benzoic acid]	4 µM	–	0.5 µM
O=C(N/N=C1/C(=O)N(CCc2ccccc2)c2ccc(SCCc3ccc(C(=O)O)cc3)cc21)Nc1ccc(C(F)(F)F)cc1Cl [Example 35, 4-{2-[3((2-chloro-4-trifluoromethylanilinocarbonyl)hydrazono)-2-oxo-1-phenethyl-2,3-dihydro-1H-indol-5-ylsulfanyl]ethyl}benzoic acid]	0.25 µM	8 µM	0.5 µM
CCCCCCN1C(=O)/C(=N/NC(=O)Nc2ccc(F)cc2)c2cc(SCCCc3ccc(C(=O)O)cc3)ccc21 [Example 74, 4-[3-(3-((4-fluoroanilinocarbonyl)hydrazono)-2-oxo-1-hexyl-2,3-dihydro-1H-indol-5-ylsulfanyl)propyl]benzoic acid]	4 µM	4 µM	0.25 µM
